What was measured:
Format in all cases: cell-based
Klebsiella pneumoniae = experiment: Minimum Inhibitory Concentration (MIC) by spiral plater / spiral gradient endpoint against Klebsiella pneumoniae; details: quantity of BIT used alone that gives the desired effect, calcium ethylhexanoate-BIT series
Experimental: (§1) Synergistic Index=Qa/QA+Qb/QB [Equation No. 1] • where Qa=the quantity of component A used in a binary mixture that gives the desired effect • QA=the quantity of component A which when used alone gives the desired effect • Qb=the quantity of component B used in a binary mixture that gives the desired effect • QB=the quantity of component B which when used alone gives the desired effect
(§2) Minimum Inhibitory Concentration (“MIC”) for each of the antimicrobial compositions was determined against a test microbe, which in this case was a spore suspension of the fungus Alternaria alternata, with the aid of an Autoplate 4000 spiral plater that is commercially available from Spiral Biotech, Inc., Norwood, Mass., and its accompanying spiral gradient endpoint software (hereinafter referred to as “the SGE software”). […]
(§3) Inoculated spiral gradient plates were incubated for 48 hours in an incubator at 28° C. […] This growth endpoint value (expressed in mm as measured from center point of the Petri plate) was used to calculate MIC for the mixture, expressed as parts per million.
Utilizing the procedure described above in Example 1, Minimum Inhibitory Concentration (“MIC”) for each of the antimicrobial compositions was determined against a test microbe, which in this case was a spore suspension of the bacteria Klebsiella pneumoniae. […]

Pseudomonas aeruginosa = experiment: Minimum Inhibitory Concentration (MIC) by spiral plater / spiral gradient endpoint against Pseudomonas aeruginosa; details: quantity of BIT used alone that gives the desired effect, Pseudomonas aeruginosa
Experimental: as §1
Minimum Inhibitory Concentration (“MIC”) for each of the antimicrobial compositions was determined against a test microbe, which in this case was a spore suspension of the fungus Alternaria alternata, with the aid of an Autoplate 4000 spiral plater that is commercially available from Spiral Biotech, Inc., Norwood, Mass., and its accompanying spiral gradient endpoint software (hereinafter referred to as “the SGE software”). The spiral plater automates the normal serial dilution method for determining MICs. Although the details of the SGE software are held confidentially by Spiral Biotech, Inc., they are believed to consistent with the principles set forth in “Measurement of MICs of antibacterial agents by spiral gradient endpoint compared with conventional dilution method” J. H. Paton, H. A. Holt, and M. J. Bywater—Int. J. Exp. Clin. Chemother, 1990.
The spiral plater automatically applied 54.3 micro-liters of each antimicrobial composition of interest to the surface of 150 millimeter malt agar plates using an exponential application gradient. The concentration of the antimicrobial concentration was greatest near the center of the Petri plates and decreased toward the edges. Antimicrobial composition gradients were allowed to air dry at room temperature for 1 to 4 hours at 23° C. before inoculation with test microbe. Spiral gradient plates were inoculated by streaking with cotton swabs that had been soaked in test microbe spore suspension. Streaks were applied in a radial pattern, using a paper template generated by the SGE software to guide the application. Eight radii were inoculated per Petri plate. Each radius is considered as one replicated observation.
Inoculated spiral gradient plates were incubated for 48 hours in an incubator at 28° C. Visible growth of the test microbe developed along the radial streaks and ended where the concentration of the antimicrobial composition was sufficient to prevent growth. This growth endpoint value (expressed in mm as measured from center point of the Petri plate) was used to calculate MIC for the mixture, expressed as parts per million.
Utilizing the procedure described above in Example 1, Minimum Inhibitory Concentration (“MIC”) for each of the antimicrobial compositions was determined against a test microbe, which in this case was a spore suspension of the bacterium Pseudomonas aeruginosa. Several antimicrobial compositions containing calcium gluconate, BIT, or both in water were investigated, as shown below in Table 7.
Utilizing the procedure described above in Example 1, Minimum Inhibitory Concentration (“MIC”) for each of the antimicrobial compositions was determined against a test microbe, which in this case was a […] Pseudomonas aeruginosa. Several antimicrobial compositions containing calcium glycerate, BIT, or both in water were investigated, as shown below in Table 13.
Utilizing the procedure described above in Example 1, Minimum Inhibitory Concentration (“MIC”) of certain antimicrobial compositions was determined against a test microbe, which in this case was a spore suspension of the bacterium Pseudomonas aeruginosa. Several antimicrobial compositions containing zinc gluconate, BIT, or both in water were investigated, as shown below in Table 19.

[1] = tested on: mixed bacterial inoculum: Pseudomonas aeruginosa (ATCC #10145), Escherichia coli (ATCC #11229), Enterobacter aerogenes (ATCC #13048), Alcaligenes faecalis …; experiment: Two-part bacterial challenge of acrylic latex paint samples with a mixed inoculum (performance ratings); parameters: key to Performance Ratings Week 1, 1 Day / Performance Ratings Week 1, 2 Days / Performance Ratings Week 1, 8 Days / Performance Ratings Week 2, 1 Day / Performance Ratings Week 2, 2 Days / Performance Ratings Week 2, 8 Days: 0: No bacterial growth; 1: Trace of bacterial growth; 2: Light bacterial growth; 3: Moderate bacterial growth; 4: Heavy bacterial growth; details: for Performance Ratings Week 1, 1 Day: Week 1, 1 Day after inoculation; for Performance Ratings Week 1, 2 Days: Week 1, 2 Days after inoculation; for Performance Ratings Week 1, 8 Days: Week 1, 8 Days after inoculation; for Performance Ratings Week 2, 1 Day: Week 2, 1 Day after inoculation; for Performance Ratings Week 2, 2 Days: Week 2, 2 Days after inoculation; for Performance Ratings Week 2, 8 Days: Week 2, 8 Days after inoculation
Experimental: In order to quantify the antibacterial effectiveness of an antimicrobial composition of interest, samples were prepared by adding various amounts of the antimicrobial composition to identical volumes of a paint that contained no preservatives and was not contaminated by bacteria. In this case, the test sample was a white, aqueous-based, acrylic latex paint. The paint included an acrylic resin, and conventional additives such as surfactant, thickener, defoamer, and titanium oxide.
The samples of the paint were subjected to a two-part challenge procedure and the sample that provided acceptable anti-bacterial protection with the lowest concentration of the antimicrobial composition was identified. Each part of the anti-bacterial challenge consisted of a 7-day test cycle. The parts were performed consecutively over 14 test days.
Challenge testing was accomplished using a mixed bacterial inoculum as the contamination event. These bacteria are Pseudomonas aeruginosa (ATCC #10145), Escherichia coli (ATCC #11229), Enterobacter aerogenes (ATCC #13048), and Alcaligenes faecalis (ATCC #25094). To prepare the test inoculum, each type of bacteria was harvested separately in nutrient broth. Just before use in the challenge test, equal strengths of each bacterial culture were mixed to obtain an inoculum of approximately 10^8 colony forming units per milliliter (cfu/mL).
After incubation, both control blanks and samples containing preservatives of interest were inoculated with the mixed inoculum to a final of 1.0 weight %. […]
Performance ratings of 0, 1, 2, 3 or 4 for each inoculated paint sample were determined by visual inspection of the streak lines, according to the definitions set forth below in Table 25.

Saccharomyces cervisiae = experiment: Minimum Inhibitory Concentration (MIC) by spiral plater / spiral gradient endpoint against Saccharomyces cervisiae; details: quantity of BIT used alone that gives the desired effect; calcium gluconate-BIT series; Saccharomyces cervisiae
Experimental: as §1, §2, §3
Utilizing the procedure described above in Example 1, Minimum Inhibitory Concentration (“MIC”) for each of the antimicrobial compositions was determined against a test microbe, which in this case was a spore suspension of the yeast Saccharomyces cervisiae. […]

Staphylococcus aureus = experiment: Minimum Inhibitory Concentration (MIC) by spiral plater / spiral gradient endpoint against Staphylococcus aureus

O=c1[nH]sc2ccccc12 [BIT, 1,2-benzisothiazol-3(2H)-one]
QB (Klebsiella pneumoniae): 27 ppm | QB (Pseudomonas aeruginosa; calcium gluconate-BIT series): 85 ppm | QB (Pseudomonas aeruginosa; calcium glycerate-BIT series): 27.5 ppm | QB (Pseudomonas aeruginosa; zinc gluconate-BIT series): 661 ppm | Performance Ratings Week 1, 1 Day ([1]; 50 ppm in acrylic latex paint): 4 | Performance Ratings Week 1, 2 Days ([1]; 50 ppm in acrylic latex paint): 4 | Performance Ratings Week 1, 8 Days ([1]; 50 ppm in acrylic latex paint): 4 | Performance Ratings Week 2, 1 Day ([1]; 50 ppm in acrylic latex paint): 4 | Performance Ratings Week 2, 2 Days ([1]; 50 ppm in acrylic latex paint): 4 | Performance Ratings Week 2, 8 Days ([1]; 50 ppm in acrylic latex paint): 4 | Performance Ratings Week 1, 1 Day ([1]; 500 ppm in acrylic latex paint): 4 | Performance Ratings Week 1, 2 Days ([1]; 500 ppm in acrylic latex paint): 2 | Performance Ratings Week 1, 8 Days ([1]; 500 ppm in acrylic latex paint): 0 | Performance Ratings Week 2, 1 Day ([1]; 500 ppm in acrylic latex paint): 4 | Performance Ratings Week 2, 2 Days ([1]; 500 ppm in acrylic latex paint): 4 | Performance Ratings Week 2, 8 Days ([1]; 500 ppm in acrylic latex paint): 0 | QB (Saccharomyces cervisiae): 61 ppm | QB (Staphylococcus aureus; MIC of BIT alone for Staphylococcus aureus, used for SI): 16 ppm | ppm of BIT alone providing the same inhibition (Staphylococcus aureus; zinc glycerate-BIT series, Staphylococcus aureus): 16 ppm

— patent US20180332847A1, “ANTIMICROBIAL METAL CARBOXYLATE-BENZISOTHIAZOLINONE MIXTURES” (Troy Corporation, priority 2017, published 2018)
